From US20110318281A1, “Lactobacillus Salivarius SG-M6 for Improving Oral Bacterial Groups and Health Care Compositions Thereof” (SYNGEN BIOTECH CO., LTD., priority 2010, published 2011)

Assays:
[1] = tested on: artificially induced periodontal disease (ligature wire, Streptococcus mutans); test: Evaluation of therapeutic effect for animal periodontal disease; assay type: in vivo, Balb/c mice; conditions: treatment groups; for periodontal pocket improvement percentage (percentage of improving individual): Mann-Whitney test vs tMT
Experimental: (§1) This trial included treatment groups and control groups. The treatment groups of Lactobacillus salivarius SG-M6 were divided into 6 groups as follows: 6 groups of dialyzed fermentation product concentrate of Lactobacillus salivarius SG-M6 included 15-fold, 10-fold, 5-fold, 4-fold, 2-fold, and 1-fold (unconcentrated fermentation broth). Two control groups included the treatment of 0.267 mg/mL of tetracycline and distilled water.
Twelve of 8-week-old female Balb/c mice were selected for each group (Table 3). […] After diagnosis of diseased tissue by chief dentists, they were administered with different concentrations of Lactobacillus salivarius SG-M6 fermentation product, live Lactobacillus salivarius SG-M6, 1 mL of 0.267 mg/mL tetracycline or distilled water every day. The pathological symptoms were recorded. Wire was removed at the beginning of the treatment and periodontal pathogen inoculation was terminated. At day 4, 8, 12, and 16 after wire removal, mice periodontal pocket depth was examined. 3 mice from each group were killed for blood sampling and samples were collected for histological analysis.
(§2) Control group was used as a standard to examine individuals in each group by Mann-Whitney test. Subjects with significant difference were defined as improving individuals. (number of improving Subject/number of total subject in group)×100%=improvement percentage of periodontal pocket depth.
(§3) Experimental data were shown as mean±S.D. The statistical variation of treatment group and control group of mice periodontal pocket were performed by One-Way ANOVA and Dunnett multiple post hoc comparison in longitudinal study, and by One-Way ANOVA and LSD multiple post hoc comparison in cross-sectional study. Besides, Mann-Whitney test was used for examining the number of periodontal pocket improving individuals. The p value of statistical significance level was 0.05.

[2] = tested on: Streptococcus mutans (ATCC 25175); test: Disc agar diffusion test; assay type: cell-based; conditions: 6 mm paper disc, 37, 24 hours, mean±S.D. (n=3)
Experimental: (§4) Lactobacillus salivarius SG-M6 were cultured in liquid medium. MRS medium was used in this embodiment. The bacteria were cultured at 30-37 for 15-24 hours. The fermentation broth was concentrated into 30-fold of original concentration, dialyzed by Spectra/Por®Dialysis Membrane (MWCO:3500, Spectrum Laboratories Inc, CA) for 48 hours, and diluted into various concentrations according to experimental requirements. […] Above four pathogens strains were purchased from Bioresource Collection and Research Center of Food Industry Research and Development Institute in Taiwan or ATCC. […] The diameter of sterile paper disc was 6 mm. The positive bacterial inhibition effect was determined by bacterial inhibition zone over 6 mm in diameter. Otherwise, it was defined as negative bacterial inhibition effect. Cultural condition was under the temperature of 37 for 24 hours. […] The inhibition zone values were shown as mean±S.D. (n=3).

[3] = tested on: Streptococcus sanguis (ATCC 49295); test: Disc agar diffusion test; assay type: cell-based; conditions: 6 mm paper disc, 37, 24 hours, mean±S.D. (n=3)
Experimental: as §4

[4] = tested on: Actinomyces viscosus (ATCC 15987); test: Disc agar diffusion test; assay type: cell-based; conditions: 6 mm paper disc, 37, 24 hours, mean±S.D. (n=3)
Experimental: as §4

[5] = tested on: Porphyromonas gingivalis (ATCC 33277); test: Disc agar diffusion test; assay type: cell-based; conditions: 6 mm paper disc, 37, 24 hours, mean±S.D. (n=3)
Experimental: as §4

[6] = tested on: artificially induced periodontal disease (ligature wire, Streptococcus mutans); test: Evaluation of preventive effect for animal periodontal disease; assay type: in vivo, Balb/c mice; conditions: prevention groups; for periodontal pocket improvement percentage (percentage of improving individual): Mann-Whitney test vs pMT
Experimental: as §1
Twelve of 8-week-old female Balb/c mice were selected for each group (Table 2). The mice were administered with various concentrations of Lactobacillus salivarius SG-M6 fermentation product, 1 mL of 0.267 mg/mL tetracyccline or distilled water. […] Their pathological symptoms observed and recorded until sacrificing all animals. Until the control group (feeding with distilled water, mock-treated group) showing gum swelling and dental plaque appearance diagnosed by chief dentists, the ligature wire was removed and inoculation of dental pathogen was stopped. At day 4, 8, 12, and 16 after wire removal, mice periodontal pocket depth was examined, 3 mice from each group were killed for blood sampling, and samples were collected for histological analysis.
as §2, §3

CN(C)[C@@H]1C(O)=C(C(N)=O)C(=O)[C@@]2(O)C(O)=C3C(=O)c4c(O)cccc4[C@@](C)(O)[C@H]3C[C@@H]12 [Tetracycline, tetracycline]
periodontal pocket improvement percentage (percentage of improving individual) ([1]; Day 4): 30%
periodontal pocket depth ([1]; Day 4, Table 13, comparison with day 4): 1.05 ± 0.64 mm
periodontal pocket depth ([1]; Day 4, compared with tMT): 1.05 ± 0.64 mm
periodontal pocket improvement percentage (percentage of improving individual) ([1]; Day 8): 20%
periodontal pocket depth ([1]; Day 8, Table 13, comparison with day 4): 0.89 ± 0.44 mm
periodontal pocket depth ([1]; Day 8, compared with tMT): 0.89 ± 0.44 mm
periodontal pocket improvement percentage (percentage of improving individual) ([1]; Day 12): 47%
periodontal pocket depth ([1]; Day 12, Table 13, comparison with day 4): 0.63 ± 0.37 mm
periodontal pocket depth ([1]; Day 12, compared with tMT): 0.63 ± 0.37 mm
periodontal pocket improvement percentage (percentage of improving individual) ([1]; Day 16): 33%
periodontal pocket depth ([1]; Day 16, Table 13, comparison with day 4): 0.61 ± 0.34 mm
periodontal pocket depth ([1]; Day 16, compared with tMT): 0.48 ± 0.33 mm
inhibition zone [2]: 29.7 ± 2.0^ mm
inhibition zone [3]: 25.9 ± 1.2^ mm
inhibition zone [4]: 48.2 ± 2.4^ mm
inhibition zone [5]: 33.4 ± 2.2^ mm
periodontal pocket improvement percentage (percentage of improving individual) ([6]; Day 4): 62%
periodontal pocket depth ([6]; Day 4, Table 11, comparison with day 4): 0.84 ± 0.50 mm
periodontal pocket depth ([6]; Day 4 after wire removal, compared with pMT): 0.84 ± 0.50 mm
periodontal pocket improvement percentage (percentage of improving individual) ([6]; Day 8): 50%
periodontal pocket depth ([6]; Day 8, Table 11, comparison with day 4): 0.70 ± 0.34 mm
periodontal pocket depth ([6]; Day 8, compared with pMT): 0.70 ± 0.34 mm
periodontal pocket improvement percentage (percentage of improving individual) ([6]; Day 12): 71%
periodontal pocket depth ([6]; Day 12, Table 11, comparison with day 4): 0.65 ± 0.26 mm
periodontal pocket depth ([6]; Day 12, compared with pMT): 0.56 ± 0.26 mm
periodontal pocket improvement percentage (percentage of improving individual) ([6]; Day 16): 100%
periodontal pocket depth ([6]; Day 16, Table 11, comparison with day 4): 0.49 ± 0.25 mm
periodontal pocket depth ([6]; Day 16, compared with pMT): 0.49 ± 0.25 mm
